In US20250223268A1, “4-Methylsulfonylbenzamide Compound, Preparation Method, Herbicidal Composition And Use” (Jiangsu Flag Chemical Industry Co., Ltd., priority 2022, published 2025):

Key:
Assay in all cases: Greenhouse herbicidal activity assay, post-emergence
Format in all cases: in vivo
[1] = system: Cyperus iria; settings: Post-emergence test, rate 150 g a.i./hm^2, grade by fresh weight inhibition rate; for pest or weed control at 150 g/ha: Cyperus iria, read-out: Control efficacy grade, Cyperus iria
In short: (§1)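 Weeds were sown in nutrient soil in 7 cm pots and grown in a growth chamber to the 3-6 leaf stage, then foliar-sprayed, air-dried and returned to the chamber. Fresh weight inhibition was scored 14-21 days later in bands from A (≥80% to 100%) to E (<20%).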

[2] = system: Echinochloa crusgalli; settings: Post-emergence test, rate 150 g a.i./hm^2, grade by fresh weight inhibition rate; for pest or weed control at 150 g/ha: Echinochloa crus-galli, read-out: Control efficacy grade, Echinochloa crusgalli
In short: as §1

[3] = system: Leptochloa chinensis; settings: Post-emergence test, rate 150 g a.i./hm^2, grade by fresh weight inhibition rate; for pest or weed control at 150 g/ha: Dinebra chinensis, read-out: Control efficacy grade, Leptochloa chinensis
In short: as §1

[4] = system: Eclipta prostrata; settings: Post-emergence test, rate 150 g a.i./hm^2, grade by fresh weight inhibition rate; for pest or weed control at 150 g/ha: Eclipta prostrata, read-out: Control efficacy grade, Eclipta prostrata
In short: as §1

[5] = system: Digitaria sanguinalis; settings: Post-emergence test, rate 150 g a.i./hm^2, grade by fresh weight inhibition rate; for pest or weed control at 150 g/ha: Digitaria sanguinalis, read-out: Control efficacy grade, Digitaria sanguinalis
In short: as §1

Row | SMILES | Control efficacy grade, Cyperus iria [1] | Control efficacy grade, Echinochloa crusgalli [2] | Control efficacy grade, Leptochloa chinensis [3] | Control efficacy grade, Eclipta prostrata [4] | Control efficacy grade, Digitaria sanguinalis [5] | pest or weed control at 150 g/ha [1] [%] | pest or weed control at 150 g/ha [2] [%] | pest or weed control at 150 g/ha [3] [%] | pest or weed control at 150 g/ha [4] [%] | pest or weed control at 150 g/ha [5] [%]
1 | CCCS(=O)(=O)c1c(S(C)(=O)=O)ccc(C(=O)Nc2ncnn2C)c1Cl [Compound 2-5] | A (Fresh weight inhibition rate≥80% to 100%) | B (Fresh weight inhibition rate≥260% to <80%) | A (Fresh weight inhibition rate≥80% to 100%) | A (Fresh weight inhibition rate≥80% to 100%) | B (Fresh weight inhibition rate≥260% to <80%) |  |  |  |  | 
2 | CC(C)[S+]([O-])c1c(S(C)(=O)=O)ccc(C(=O)Nc2nnnn2C)c1Cl (single isomer, unassigned) [Compound 1-8] | A (Fresh weight inhibition rate≥80% to 100%) | A (Fresh weight inhibition rate≥80% to 100%) | A (Fresh weight inhibition rate≥80% to 100%) | A (Fresh weight inhibition rate≥80% to 100%) | A (Fresh weight inhibition rate≥80% to 100%) |  |  |  |  | 
3 | CCCSc1c(S(C)(=O)=O)ccc(C(=O)Nc2nnco2)c1Cl [Compound 3-267, 2-chloro-4-(methylsulfonyl)-N-(1,3,4-oxadiazol-2-yl)-3-(propylthio)benzamide] |  |  |  |  |  | 80 to 100 | 80 to 100 | 80 to 100 | 80 to 100 | 80 to 100
4 | CC(C)c1nnc(NC(=O)c2ccc(S(C)(=O)=O)c([S+]([O-])CC3CC3)c2Cl)o1 (racemic) [Compound 3-531] | A (Fresh weight inhibition rate≥80% to 100%) | A (Fresh weight inhibition rate≥80% to 100%) | A (Fresh weight inhibition rate≥80% to 100%) | A (Fresh weight inhibition rate≥80% to 100%) | A (Fresh weight inhibition rate≥80% to 100%) |  |  |  |  | 
5 | C=C(C)C[S+]([O-])c1c(S(C)(=O)=O)ccc(C(=O)Nc2nnc(C)o2)c1Cl (racemic) [Compound 3-143] | A (Fresh weight inhibition rate≥80% to 100%) | A (Fresh weight inhibition rate≥80% to 100%) | A (Fresh weight inhibition rate≥80% to 100%) | A (Fresh weight inhibition rate≥80% to 100%) | A (Fresh weight inhibition rate≥80% to 100%) |  |  |  |  | 
6 | CCCC[S+]([O-])c1c(S(C)(=O)=O)ccc(C(=O)Nc2nnc(C3CC3)o2)c1Cl (racemic) [Compound 3-626] | A (Fresh weight inhibition rate≥80% to 100%) | A (Fresh weight inhibition rate≥80% to 100%) | A (Fresh weight inhibition rate≥80% to 100%) | A (Fresh weight inhibition rate≥80% to 100%) | A (Fresh weight inhibition rate≥80% to 100%) |  |  |  |  | 
7 | Cn1nnnc1NC(=O)c1ccc(S(C)(=O)=O)c([S+]([O-])C2CCC2)c1Cl (racemic) [Compound 1-38] | A (Fresh weight inhibition rate≥80% to 100%) | A (Fresh weight inhibition rate≥80% to 100%) | B (Fresh weight inhibition rate≥260% to <80%) | A (Fresh weight inhibition rate≥80% to 100%) | A (Fresh weight inhibition rate≥80% to 100%) |  |  |  |  | 
8 | C#CCSc1c(S(C)(=O)=O)ccc(C(=O)Nc2nnc(C)o2)c1Cl [Compound 3-147] | B (Fresh weight inhibition rate≥260% to <80%) | B (Fresh weight inhibition rate≥260% to <80%) | A (Fresh weight inhibition rate≥80% to 100%) | A (Fresh weight inhibition rate≥80% to 100%) | A (Fresh weight inhibition rate≥80% to 100%) |  |  |  |  | 
9 | CS(=O)(=O)c1ccc(C(=O)Nc2nnc(C3CC3)o2)c(Cl)c1[S+]([O-])C1CCCCC1 (racemic) [Compound 3-667] | A (Fresh weight inhibition rate≥80% to 100%) | C (Fresh weight inhibition rate≥40% to <60%) | A (Fresh weight inhibition rate≥80% to 100%) | A (Fresh weight inhibition rate≥80% to 100%) | A (Fresh weight inhibition rate≥80% to 100%) |  |  |  |  | 
10 | CCC(C)[S+]([O-])c1c(S(C)(=O)=O)ccc(C(=O)Nc2nnco2)c1Cl (mixture of isomers) [Compound 3-285] | A (Fresh weight inhibition rate≥80% to 100%) | A (Fresh weight inhibition rate≥80% to 100%) | A (Fresh weight inhibition rate≥80% to 100%) | A (Fresh weight inhibition rate≥80% to 100%) | A (Fresh weight inhibition rate≥80% to 100%) |  |  |  |  | 
11 | CCCCSc1c(S(C)(=O)=O)ccc(C(=O)Nc2nnnn2C)c1Cl [Compound 1-11] | A (Fresh weight inhibition rate≥80% to 100%) | A (Fresh weight inhibition rate≥80% to 100%) | A (Fresh weight inhibition rate≥80% to 100%) | A (Fresh weight inhibition rate≥80% to 100%) | A (Fresh weight inhibition rate≥80% to 100%) |  |  |  |  | 
12 | CCCSc1c(S(C)(=O)=O)ccc(C(=O)Nc2nnc(CC)o2)c1Cl [Compound 3-383] | A (Fresh weight inhibition rate≥80% to 100%) | A (Fresh weight inhibition rate≥80% to 100%) | B (Fresh weight inhibition rate≥260% to <80%) | A (Fresh weight inhibition rate≥80% to 100%) | B (Fresh weight inhibition rate≥260% to <80%) |  |  |  |  | 
13 | C=CCSc1c(S(C)(=O)=O)ccc(C(=O)Nc2nnco2)c1Cl [Compound 3-338] | A (Fresh weight inhibition rate≥80% to 100%) | A (Fresh weight inhibition rate≥80% to 100%) | A (Fresh weight inhibition rate≥80% to 100%) | A (Fresh weight inhibition rate≥80% to 100%) | C (Fresh weight inhibition rate≥40% to <60%) |  |  |  |  | 
14 | CC(C)[S+]([O-])c1c(S(C)(=O)=O)ccc(C(=O)Nc2nnnn2C)c1Cl (racemic) [Compound 1-7] | A (Fresh weight inhibition rate≥80% to 100%) | A (Fresh weight inhibition rate≥80% to 100%) | A (Fresh weight inhibition rate≥80% to 100%) | A (Fresh weight inhibition rate≥80% to 100%) | A (Fresh weight inhibition rate≥80% to 100%) |  |  |  |  | 
15 | CS(=O)(=O)c1ccc(C(=O)Nc2nnc(C3CC3)o2)c(Cl)c1[S+]([O-])C1CCC1 (racemic) [Compound 3-657] | A (Fresh weight inhibition rate≥80% to 100%) | B (Fresh weight inhibition rate≥260% to <80%) | A (Fresh weight inhibition rate≥80% to 100%) | A (Fresh weight inhibition rate≥80% to 100%) | A (Fresh weight inhibition rate≥80% to 100%) |  |  |  |  | 
16 | CS(=O)(=O)c1ccc(C(=O)Nc2nnco2)c(Cl)c1[S+]([O-])CCCl (racemic) [Compound 3-379] | A (Fresh weight inhibition rate≥80% to 100%) | A (Fresh weight inhibition rate≥80% to 100%) | A (Fresh weight inhibition rate≥80% to 100%) | A (Fresh weight inhibition rate≥80% to 100%) | A (Fresh weight inhibition rate≥80% to 100%) |  |  |  |  | 
17 | CCC[S+]([O-])c1c(S(C)(=O)=O)ccc(C(=O)Nc2nnnn2C)c1Cl (single isomer, unassigned) [Compound 1-3] | A (Fresh weight inhibition rate≥80% to 100%) | A (Fresh weight inhibition rate≥80% to 100%) | A (Fresh weight inhibition rate≥80% to 100%) | A (Fresh weight inhibition rate≥80% to 100%) | A (Fresh weight inhibition rate≥80% to 100%) |  |  |  |  | 
18 | Cc1nnc(NC(=O)c2ccc(S(C)(=O)=O)c(SCC#N)c2Cl)o1 [Compound 3-192] | A (Fresh weight inhibition rate≥80% to 100%) | A (Fresh weight inhibition rate≥80% to 100%) | A (Fresh weight inhibition rate≥80% to 100%) | A (Fresh weight inhibition rate≥80% to 100%) | A (Fresh weight inhibition rate≥80% to 100%) |  |  |  |  | 
19 | CCn1nnnc1NC(=O)c1ccc(S(C)(=O)=O)c([S+]([O-])C(C)C)c1Cl (centres unmarked) [Compound 1-93, 2-chloro-N-(1-ethyl-1H-tetrazol-5-yl)-3-(isopropylsulfinyl)-4-(methylsulfonyl)benzamide] |  |  |  |  |  | 80 to 100 | 80 to 100 | 80 to 100 | 80 to 100 | 80 to 100
